Source: US9163256B2, “Mutant receptors and their use in a nuclear receptor-based inducible gene expression system” (priority 2004, dated 2015)
Where “and” joins values, the source holds several entries; their conditions need not be identical. Identical values can stand only once. Like-named read-outs stand apart in the source and are kept apart here.

What was measured:
Experiment in all cases: cell-based
CfEcR-DEF mutant L132M = CfEcR-DEF mutant L132M (Choristoneura fumiferana, UniProt O77255, L415M); format: cell-based; details: NIH3T3, 40 h, read-out: Rel Max FI, mutant L132M
Sequence of CfEcR-DEF mutant L132M (O77255 entry or part of it L415M): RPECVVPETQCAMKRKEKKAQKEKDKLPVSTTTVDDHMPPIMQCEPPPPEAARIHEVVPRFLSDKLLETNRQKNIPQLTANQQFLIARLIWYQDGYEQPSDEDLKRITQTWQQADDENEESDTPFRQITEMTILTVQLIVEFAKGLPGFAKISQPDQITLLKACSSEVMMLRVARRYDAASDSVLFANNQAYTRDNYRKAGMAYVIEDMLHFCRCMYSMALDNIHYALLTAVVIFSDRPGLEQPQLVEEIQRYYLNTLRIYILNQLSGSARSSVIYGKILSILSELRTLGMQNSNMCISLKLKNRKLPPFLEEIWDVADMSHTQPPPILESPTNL
Sequence of CfEcR-DEF mutant L132M (P28702 298-449, further chain): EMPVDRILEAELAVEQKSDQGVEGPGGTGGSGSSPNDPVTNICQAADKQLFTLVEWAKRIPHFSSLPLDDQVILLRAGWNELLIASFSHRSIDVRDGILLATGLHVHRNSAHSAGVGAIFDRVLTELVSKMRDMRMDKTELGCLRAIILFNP
Description: (§1) This construct was prepared in the same way as in switch 1.1 above except wild-type CfEcR-DEF was replaced with mutant CfEcR-DEF comprising a ligand binding domain comprising a substitution mutation selected from Table 1 below.
(§2) DNAs were transfected into mouse NIH3T3 cells (ATCC) as follows. Standard methods for culture and maintenance of the cells were followed. Cells were harvested and plated 96-well plates at 2,500 cells per well, in 50 μL of growth medium containing 10% fetal bovine serum (FBS). Twenty-four hours later, the cells were treated with 35 μL of serum-free growth medium containing either dimethylsulfoxide (DMSO; control) or a DMSO solution of ligand. The cells were then transfected using Superfect (Qiagen Inc.) transfection reagent. For each well, 0.625 μL of Superfect was mixed with 14.2 μL of serum-free growth medium. 0.16 μg of reporter construct and 0.04 μg of each receptor construct were added to the transfection reagent mix. The contents of the transfection mix were mixed in a vortex mixer and let stand at room temperature for 30 minutes. At the end of incubation, 15 μL of transfection mix was added to the cells. The cells were maintained at 37° C. and 5% CO2 for 48 hours in 5% FBS.
(§3) Reporter Assays: Cells were harvested 40 hours after adding ligands. 125 μL of passive lysis buffer (part of Dual-Luciferase reporter assay system from Promega Corporation) were added to each well of the […] plate. The plates were placed on a rotary shaker for 15 minutes. Twenty μL of lysate were assayed. Luciferase activity was measured using Dual-Luciferase reporter assay system from Promega Corporation following the manufacturer's instructions. Fold induction (FI) activities were calculated by dividing relative light units (“RLU”) in ligand treated cells with RLU in DMSO treated cells (untreated control).

CfEcR-DEF mutant F48W = CfEcR-DEF mutant F48W (Choristoneura fumiferana, UniProt O77255, F331W)
Sequence of CfEcR-DEF mutant F48W (P28702 299-449): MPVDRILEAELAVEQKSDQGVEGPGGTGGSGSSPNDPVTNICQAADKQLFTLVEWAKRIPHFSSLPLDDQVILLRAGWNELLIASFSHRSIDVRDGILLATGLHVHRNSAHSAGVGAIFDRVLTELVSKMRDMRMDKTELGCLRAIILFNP
Sequence of CfEcR-DEF mutant F48W (O77255 entry or part of it F331W): as the sequence (O77255 entry or part of it L415M) above, with F125W, M209L counted along it
Description: as §1, §2, §3

CfEcR-DEF mutant W238E = CfEcR-DEF mutant W238E (Choristoneura fumiferana, UniProt O77255, W521E)
Sequence of CfEcR-DEF mutant W238E (P28702 299-449): as the sequence (P28702 299-449) above
Sequence of CfEcR-DEF mutant W238E (O77255 entry or part of it W521E): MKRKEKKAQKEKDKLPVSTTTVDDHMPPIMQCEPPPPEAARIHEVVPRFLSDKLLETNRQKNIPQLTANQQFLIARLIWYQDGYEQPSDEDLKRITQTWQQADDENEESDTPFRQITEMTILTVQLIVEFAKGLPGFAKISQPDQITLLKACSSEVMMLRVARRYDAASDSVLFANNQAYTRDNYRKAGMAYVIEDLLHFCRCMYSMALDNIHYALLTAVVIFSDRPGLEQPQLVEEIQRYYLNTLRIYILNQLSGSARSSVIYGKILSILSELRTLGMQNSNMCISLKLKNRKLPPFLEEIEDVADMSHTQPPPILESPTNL
Description: as §1, §2, §3

CfEcR-DEF mutant V128F = CfEcR-DEF mutant V128F (Choristoneura fumiferana, UniProt O77255, V411F)
Sequence of CfEcR-DEF mutant V128F (P28702 299-449): as the sequence (P28702 299-449) above
Sequence of CfEcR-DEF mutant V128F (O77255 entry or part of it V411F): as the sequence (O77255 entry or part of it W521E) above, with V193F, E303W counted along it
Description: as §1, §2, §3

CfEcR-DEF mutant T52P = CfEcR-DEF mutant T52P (Choristoneura fumiferana, UniProt O77255, T335P)
Sequence of CfEcR-DEF mutant T52P (P28702 298-449): as the sequence (P28702 298-449, further chain) above
Sequence of CfEcR-DEF mutant T52P (O77255 entry or part of it T335P): as the sequence (O77255 entry or part of it L415M) above, with T129P, M209L counted along it
Description: as §1, §2, §3

CfEcR-DEF mutant F109M = CfEcR-DEF mutant F109M (Choristoneura fumiferana, UniProt O77255, F392M)
Sequence of CfEcR-DEF mutant F109M (O77255 entry or part of it F392M): as the sequence (O77255 entry or part of it L415M) above, with F186M, M209L counted along it
Sequence of CfEcR-DEF mutant F109M (P28702 299-449, further chain): as the sequence (P28702 299-449) above
Description: as §1, §2, §3

CfEcR-DEF mutant V96E = CfEcR-DEF mutant V96E (Choristoneura fumiferana, UniProt O77255, V379E)
Sequence of CfEcR-DEF mutant V96E (O77255 entry or part of it V379E): as the sequence (O77255 entry or part of it W521E) above, with V161E, E303W counted along it
Sequence of CfEcR-DEF mutant V96E (P28702 299-449, further chain): as the sequence (P28702 299-449) above
Description: as §1, §2, §3

CfEcR-DEF mutant Y120M = CfEcR-DEF mutant Y120M (Choristoneura fumiferana, UniProt O77255, Y403M)
Sequence of CfEcR-DEF mutant Y120M (O77255 entry or part of it Y403M): as the sequence (O77255 entry or part of it W521E) above, with Y185M, E303W counted along it
Sequence of CfEcR-DEF mutant Y120M (P28702 299-449, further chain): as the sequence (P28702 299-449) above
Description: as §1, §2, §3

CfEcR-DEF mutant F48Y = CfEcR-DEF mutant F48Y (Choristoneura fumiferana, UniProt O77255, F331Y)
Sequence of CfEcR-DEF mutant F48Y (O77255 entry or part of it F331Y): as the sequence (O77255 entry or part of it L415M) above, with F125Y, M209L counted along it
Sequence of CfEcR-DEF mutant F48Y (P28702 299-449, further chain): as the sequence (P28702 299-449) above
Description: as §1, §2, §3

[1] = NIH3T3, 40 h, read-out: Rel Max FI

For `CCc1cccc(C(=O)NN(C(=O)c2cc(C)cc(C)c2)C(C)(C)C)c1C` [RG-101691, 3,5-Dimethyl-benzoic acid N-tert-butyl-N′-(3-ethyl-2-methyl-benzoyl)-hydrazide], the Emax (CfEcR-DEF mutant L132M) was 8%, the Emax (CfEcR-DEF mutant L132M; relative to max fold induction of GS-E ligand) was 77% and the EC50 (CfEcR-DEF mutant F48W) was 1.53 µM. The Emax (CfEcR-DEF mutant F48W; [1]) was 74%, the EC50 (CfEcR-DEF mutant W238E) was roughly 8 µM and the Emax (CfEcR-DEF mutant W238E; [1]) was 71%. The EC50 (CfEcR-DEF mutant V128F; EC50, mutant V128F) was ~8.3 µM and 5.4 µM, the Emax (CfEcR-DEF mutant V128F; [1]) was 4% and the EC50 (CfEcR-DEF mutant T52P) was greater than 33 µM. For the same molecule, the Emax (CfEcR-DEF mutant T52P; [1]) was 2%, the EC50 (CfEcR-DEF mutant F109M) was 0.65 µM and the Emax (CfEcR-DEF mutant F109M; [1]) was 75%. For the same molecule, the EC50 (CfEcR-DEF mutant V96E) was 1.62 µM, the Emax (CfEcR-DEF mutant V96E; [1]) was 81% and the EC50 (CfEcR-DEF mutant Y120M) was roughly 10 µM. It also gave an Emax (CfEcR-DEF mutant Y120M; [1]) of 30%, an EC50 (CfEcR-DEF mutant F48Y) of 0.93 µM and an Emax (CfEcR-DEF mutant F48Y; [1]) of 69%.
